Results reported in patent US4439426A, “Semisynthetic macrolidic antibiotics, intermediate compounds for their preparation and related pharmaceutical compositions containing them” (priority 1981, dated 1984).
Values after ≈ are worked out from the molar mass of the structure shown.

How the values were obtained:
Format in all cases: cell-based
[1] = system: Fusobacteriumnecrophroum ATCC 27852 LRP 210; test: Bacteriostatic power in solid medium (MIC); settings: solid medium, anaerobic
From the text: (§1) the bacteriostatic power, expressed as the minimum inhibiting concentration (MIC) against both aerobic and anaerobic, Gram positive and Gram negative, bacterial stocks: the related results are reported in the tables 2 and 3.

[2] = system: Streptococcus faecalis subsp. zymogenes ATCC 12958 LRP 61; test: Bacteriostatic power in solid medium (MIC); settings: solid medium
From the text: as §1

[3] = system: Mycoplasma hominis I ATCC 14027 LRP 211; test: Bacteriostatic power in solid medium (MIC); settings: solid medium
From the text: as §1

[4] = system: Streptococcus pyogenes ATCC 8668 LRP 34; test: Bacteriostatic power in solid medium (MIC); settings: solid medium
From the text: as §1

[5] = system: Micrococcus luteus ATCC 9341 LRP 6; test: Bacteriostatic power in solid medium (MIC); settings: solid medium
From the text: as §1

[6] = system: Streptococcus pneumoniae ATCC 6303 LRP 35; test: Bacteriostatic power in solid medium (MIC); settings: solid medium
From the text: as §1

[7] = system: Micrococcus luteus ATCC 15957 LRP 193; test: Bacteriostatic power in solid medium (MIC); settings: solid medium, Erythromycin resistant
From the text: as §1

[8] = system: Streptococcus faecalis LRP 7; test: Bacteriostatic power in solid medium (MIC); settings: solid medium
From the text: as §1

[9] = system: Klelsiella pneumoniae LRP 54; test: Bacteriostatic power in solid medium (MIC); settings: solid medium
From the text: as §1

[10] = system: Streptococcus pyogenes ATCC 8668 LRP 197; test: Bacteriostatic power in solid medium (MIC); settings: solid medium
From the text: as §1

[11] = system: Staphylococcus aureus ATCC 14154 LRP 78; test: Bacteriostatic power in solid medium (MIC)
From the text: as §1

[12] = system: Staphylococcus aureus ATCC 6538P LRP 39; test: Bacteriostatic power in solid medium (MIC); settings: solid medium
From the text: as §1

[13] = system: Pseudomonas aeruginosa LRP 9; test: Bacteriostatic power in solid medium (MIC); settings: solid medium
From the text: as §1

[14] = system: Streptococcus pneumoniae ATCC 6303 LRP 53; test: Bacteriostatic power in solid medium (MIC); settings: solid medium
From the text: as §1

[15] = system: Bacteroides fragilis ATCC 23745 LRP 205; test: Bacteriostatic power in solid medium (MIC); settings: solid medium, anaerobic
From the text: as §1

[16] = system: Proteus vulgaris ATCC 6380 LRP 13; test: Bacteriostatic power in solid medium (MIC); settings: solid medium
From the text: as §1

Shigella sonnei LRP 5 = test: Bacteriostatic power in solid medium (MIC); settings: LRP5, read-out: Minimum inhibiting concentration
From the text: as §1

[17] = system: Staphylococcus aureus ATCC 6538P LRP 14; test: Bacteriostatic power in solid medium (MIC); settings: solid medium, Penycilline resistant
From the text: as §1

[18] = system: Haemophilus influenzae ATCC 19418 LRP 213; test: Bacteriostatic power in solid medium (MIC)
From the text: as §1

[19] = system: Neisseria gonorrhoeae ATCC 19424 LRP 214; test: Bacteriostatic power in solid medium (MIC); settings: solid medium
From the text: as §1

Escherichia coli LRP 50 = test: Bacteriostatic power in solid medium (MIC); settings: solid medium
From the text: as §1

[20] = system: Corynebacterium diphteriae LRP 24; test: Bacteriostatic power in solid medium (MIC); settings: solid medium
From the text: as §1

[21] = system: Acholeplasma laidlawii ATCC 23206 LRP 204; test: Bacteriostatic power in solid medium (MIC); settings: solid medium
From the text: as §1

Bacillus subtilis LRP 25 = test: Bacteriostatic power in solid medium (MIC); settings: solid medium
From the text: as §1

[22] = system: Streptococcus pneumoniae ATCC 6303 LRP 52; test: Bacteriostatic power in solid medium (MIC); settings: solid medium
From the text: as §1

[23] = system: Staphylococcus aureus ATCC 6538 P LRP 39; test: Minimum bactericidal concentration (MBC)
From the text: (§2) the bacterial power, expressed as the minimum bactericidal power (MBC) against some Gram positive aerobic stocks (table 5).

[24] = system: Streptococcus pyogenes ATCC 8668 LRP 34; test: Minimum bactericidal concentration (MBC)
From the text: as §2

[25] = system: Streptococcus pneumoniae ATCC 6303 LRP 35; test: Minimum bactericidal concentration (MBC)
From the text: as §2

[26] = system: Corynebacterium diphteriae LRP 24; test: Minimum bactericidal concentration (MBC)
From the text: as §2

[27] = system: Streptococcus faecalis subs. zymogenes LRP 61; test: Minimum bactericidal concentration (MBC)
From the text: as §2

[28] = system: Staphylococcus aureus ATCC 6538 P LRP 39; test: Bacteriostatic power in liquid medium (MIC); settings: liquid medium
From the text: as §1

[29] = system: Streptococcus pyogenes ATCC 8668 LRP 34; test: Bacteriostatic power in liquid medium (MIC); settings: liquid medium
From the text: as §1

[30] = system: Streptococcus pneumoniae ATCC 6303 LRP 35; test: Bacteriostatic power in liquid medium (MIC); settings: liquid medium
From the text: as §1

[31] = system: Streptococcus faecalis subs. zymogenes ATCC 12958 LRP 61; test: Bacteriostatic power in liquid medium (MIC); settings: liquid medium
From the text: as §1

[32] = system: Corynebacterium diphteriae LRP 24; test: Bacteriostatic power in liquid medium (MIC); settings: liquid medium
From the text: as §1

[33] = system: Clostridium perfrigens ATCC 3624 LRP 206; test: microbe, parasite or virus in culture; settings: ATCC3624, solid medium, anaerobic, read-out: Minimum inhibiting concentration
From the text: as §1

Salmonella typhy LRP 8 = test: microbe, parasite or virus in culture; settings: LRP8, solid medium, read-out: Minimum inhibiting concentration
From the text: as §1

[34] = read-out: Minimum inhibiting concentration
[35] = Enterococcus faecalis, ATCC12958, read-out: Minimum inhibiting concentration
[36] = Streptococcus pyogenes, ATCC8668, read-out: Minimum inhibiting concentration
[37] = Streptococcus pneumoniae, ATCC6303, read-out: Minimum inhibiting concentration
[38] = Staphylococcus aureus, ATCC6538P, read-out: Minimum inhibiting concentration
[39] = Corynebacterium, LRP24, read-out: Minimum inhibiting concentration

With `CO[C@H]1C[C@H](O[C@H]2[C@H](C)[C@@H](O[C@@H]3O[C@H](C)C[C@H](N(C)C)[C@H]3O)[C@@H](C)C[C@@]3(CO3)C(=O)[C@H](C)[C@@H](O)[C@@H](C)[C@@H](C)OC(=O)[C@@H]2C)O[C@@H](C)[C@@H]1O` [Oleandomycin, reference compound] the MIC [1, 34] was 6.25 µg/mL (≈ 9.09 µM), the MIC [2, 35] was 1.56 µg/mL (≈ 2.27 µM) and the MIC ([3]; Metamycoplasma hominis, ATCC14027, read-out: Minimum inhibiting concentration) was 25 µg/mL (≈ 36.3 µM). It also gave an MIC [4, 36] of 0.195 µg/mL (≈ 0.283 µM), an MIC ([5]; Micrococcus luteus, ATCC9341, read-out: Minimum inhibiting concentration) of 0.049 µg/mL (≈ 0.0712 µM) and an MIC [6, 37] of 0.195 µg/mL (≈ 0.283 µM). It also gave an MIC ([7]; Micrococcus luteus, ATCC15957, read-out: Minimum inhibiting concentration) of 25 µg/mL (≈ 36.3 µM), an MIC ([8]; Enterococcus faecalis, LRP7, read-out: Minimum inhibiting concentration) of 1.56 µg/mL (≈ 2.27 µM) and an MIC [9, 34] of 25 µg/mL (≈ 36.3 µM). It also gave an MIC [10, 36] of 0.195 µg/mL (≈ 0.283 µM), an MIC ([11]; Staphylococcus aureus, ATCC14154, read-out: Minimum inhibiting concentration) of 25 µg/mL (≈ 36.3 µM) and an MIC [12, 38] of 0.39 µg/mL (≈ 0.567 µM). It also gave an MIC ([13]; Pseudomonas aeruginosa, LRP9, read-out: Minimum inhibiting concentration) of 25 µg/mL (≈ 36.3 µM), an MIC [14, 37] of 0.195 µg/mL (≈ 0.283 µM) and an MIC ([15]; Bacteroides fragilis, ATCC23745, read-out: Minimum inhibiting concentration) of 0.39 µg/mL (≈ 0.567 µM). The MIC ([16]; Proteus vulgaris, ATCC6380, read-out: Minimum inhibiting concentration) was 25 µg/mL (≈ 36.3 µM), the MIC (Shigella sonnei LRP 5) was 25 µg/mL (≈ 36.3 µM) and the MIC [17, 38] was 0.39 µg/mL (≈ 0.567 µM). It also gave an MIC ([18]; Haemophilus influenzae, ATCC19418, read-out: Minimum inhibiting concentration) of 25 µg/mL (≈ 36.3 µM), an MIC ([19]; Neisseria gonorrhoeae, ATCC19424, read-out: Minimum inhibiting concentration) of 0.39 µg/mL (≈ 0.567 µM) and an MIC (Escherichia coli LRP 50; Escherichia coli, LRP50, read-out: Minimum inhibiting concentration) of 25 µg/mL (≈ 36.3 µM). For the same compound, the MIC [20, 39] was 0.097 µg/mL (≈ 0.141 µM), the MIC ([21]; Acholeplasma laidlawii, ATCC23206, read-out: Minimum inhibiting concentration) was 6.25 µg/mL (≈ 9.09 µM) and the MIC (Bacillus subtilis LRP 25; Bacillus subtilis, LRP25, read-out: Minimum inhibiting concentration) was 0.39 µg/mL (≈ 0.567 µM). The MIC [22, 37] was 0.195 µg/mL (≈ 0.283 µM), the MBC/MIC [23] was 16 and the MBC ([23]; Staphylococcus aureus, ATCC6538, read-out: Minimum bactericidal concentration (MBC)) was 6.25 µg/mL (≈ 9.09 µM). It also gave an MBC/MIC [24] of 16, an MBC ([24]; Streptococcus pyogenes, ATCC8668, read-out: Minimum bactericidal concentration (MBC)) of 3.12 µg/mL (≈ 4.54 µM) and an MBC/MIC [25] of 4. It also gave an MBC ([25]; Streptococcus pneumoniae, ATCC6303, read-out: Minimum bactericidal concentration (MBC)) of 0.78 µg/mL (≈ 1.13 µM), an MBC/MIC [26] of 4 and an MBC ([26]; Corynebacterium, LRP24, read-out: Minimum bactericidal concentration (MBC)) of 0.39 µg/mL (≈ 0.567 µM). It also gave an MBC/MIC [27] greater than 8, an MBC ([27]; Enterococcus faecalis, read-out: Minimum bactericidal concentration (MBC)) greater than 12.5 µg/mL and an MIC ([28]; Staphylococcus aureus, ATCC6538, read-out: Minimum inhibiting concentration) of 0.39 µg/mL (≈ 0.567 µM). The MIC [29, 36] was 0.195 µg/mL (≈ 0.283 µM), the MIC [30, 37] was 0.195 µg/mL (≈ 0.283 µM) and the MIC [31, 35] was 1.56 µg/mL (≈ 2.27 µM). The MIC [32, 39] was 0.097 µg/mL (≈ 0.141 µM), the MIC [33] was 3.12 µg/mL (≈ 4.54 µM) and the MIC (Salmonella typhy LRP 8) was 25 µg/mL (≈ 36.3 µM).
For “(8S)-8-fluoroerythromycin A carbonate [P80206 carbonate]”, the Minimum inhibiting concentration [1] was 6.25 µg/mL, the Minimum inhibiting concentration [2] was 0.097 µg/mL and the Minimum inhibiting concentration [3] was 25 µg/mL. The Minimum inhibiting concentration [4] was 0.012 µg/mL, the Minimum inhibiting concentration [5] was 0.024 µg/mL and the Minimum inhibiting concentration [6] was 0.012 µg/mL. The Minimum inhibiting concentration [7] was 25 µg/mL, the Minimum inhibiting concentration [8] was 0.097 µg/mL and the Minimum inhibiting concentration [9] was 12.5 µg/mL. For the same compound, the Minimum inhibiting concentration [10] was 0.024 µg/mL, the Minimum inhibiting concentration ([11]; solid medium, Erythromycin resistant) was 25 µg/mL and the Minimum inhibiting concentration [12] was 0.097 µg/mL. The Minimum inhibiting concentration [13] was 25 µg/mL, the Minimum inhibiting concentration [14] was 0.012 µg/mL and the Minimum inhibiting concentration [15] was 0.78 µg/mL. For the same compound, the Minimum inhibiting concentration [16] was 25 µg/mL, the Minimum inhibiting concentration [17] was 0.097 µg/mL and the Minimum inhibiting concentration ([18]; solid medium) was 6.25 µg/mL. The Minimum inhibiting concentration [19] was 0.049 µg/mL, the Minimum inhibiting concentration (Escherichia coli LRP 50) was 3.12 µg/mL and the Minimum inhibiting concentration [20] was 0.024 µg/mL. The Minimum inhibiting concentration [21] was 0.195 µg/mL, the Minimum inhibiting concentration (Bacillus subtilis LRP 25) was 0.049 µg/mL and the Minimum inhibiting concentration [22] was 0.012 µg/mL. For the same compound, the Minimum inhibiting concentration [28] was 0.39 µg/mL, the Minimum inhibiting concentration [29] was 0.024 µg/mL and the Minimum inhibiting concentration [30] was 0.049 µg/mL. For the same compound, the Minimum inhibiting concentration [31] was 0.195 µg/mL and the Minimum inhibiting concentration [32] was 0.024 µg/mL.
